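Dose response: 5 concentrations. Exposure: 48 h. Format: 96-well plates. Endpoint: linear interpolation; highest concentration if not reached. At the GI50, growth is halved.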 Calls of active or inactive are those of the source. Rule as the data show it: active = GI50 up to about 1.1 µM and inactive = higher.

What all share (assay): NCI-60 cell line screen, 48 h
Assay [1] has as its system NCI-H226.
Assay [2] has as its system UO-31.
Assay [3] relates to OVCAR-3.
Assay [4] relates to EKVX.
Assay [5] has as its system HCT-15.
The subject of assay [6] is NCI-H460.
The test system of assay [7] is TK-10.
For assay [8], the system named is OVCAR-8.
Assay [9] relates to 786-0.
Assay [10] concerns HCC 2998.
Assay [11] relates to HCT-116.
In assay [12] the test system is MOLT-4.
Assay [13] relates to A549.
Assay [14] concerns A498.
Assay [15] deals with SK-MEL-28.
The subject of assay [16] is MDA-MB-231.
In assay [17] the test system is RXF 393.
In assay [18] the test system is HOP-92.
In assay [19] the test system is NCI-H23.
Assay [20] concerns SK-OV-3.

Consider `C=C1[C@H]2O[C@H]2[C@@H](OC(C)=O)[C@@]2(C)[C@@H](OC(C)=O)C[C@@H](OC(=O)CCC)[C@@](C)(O)[C@@H]2[C@@H](OC(C)=O)[C@]2(O)[C@@H](C)C(=O)O[C@H]2[C@H]1Cl`, for which the GI50 in assay [1] was 0.159 µM (active); in assay [2] it was > 100 µM (inactive); in [3] it was > 100 µM (inactive); in assay [4], > 100 µM (inactive); in assay [5], above 100 µM; in assay [6], > 100 µM (inactive). Also, the GI50 is 0.959 µM (active) in assay [7]; > 100 µM (inactive) in assay [8]; > 100 µM (inactive) in assay [9]; > 100 µM (inactive) in assay [10]; > 100 µM (inactive) in assay [11]; > 100 µM (inactive) in assay [12]. For the same compound, the GI50 in assay [13] is > 100 µM (inactive); in assay [14], > 100 µM (inactive); in assay [15], > 100 µM (inactive); in [16], > 100 µM (inactive); in [17] it was 38.7 µM (inactive); in [18], > 100 µM (inactive). The GI50 in assay [19] was > 100 µM (inactive).
In the case of `CC1(C)CC(=O)c2c(-c3ccc(Cl)cc3)c(C#N)c(=S)n(C3OC(CO)C(O)C(O)C3O)c2C1` (centres undefined), the GI50 was 20.9 µM (inactive) in assay [1]; 29.6 µM (inactive) in assay [2]; 30.9 µM (inactive) in [3]; 21.4 µM in assay [5]; 30.3 µM (inactive) in [6]; 53.3 µM (inactive) in assay [7]. Also, the GI50 in assay [8] is 35.7 µM (inactive); in assay [9], 27.5 µM (inactive); in assay [10] it was 36.7 µM (inactive); in [11], 16 µM (inactive); in assay [12] it was 25 µM (inactive); in [13], 36.1 µM (inactive). Besides, the GI50 in assay [14] is 34 µM (inactive); in assay [15], 34.8 µM (inactive); in [16] it was 33.5 µM (inactive); in assay [17], 36.2 µM (inactive); in assay [18], 21.2 µM (inactive); in assay [19], 50.8 µM (inactive).
On to `CC1=NN(C(=O)CC(=O)Nc2ccccc2Cl)C(=O)C1/N=N/c1ccc(C(=O)O)cc1` (centres undefined), for which the GI50 in assay [2] is 62.8 µM (inactive); in [3], > 100 µM (inactive); in assay [4], 4.46 µM (inactive); in assay [5] it was above 100 µM; in [6], > 100 µM (inactive); in [7] it was > 100 µM (inactive). The GI50 in assay [8], in assay [9], in assay [10], in [11], in [12] and in assay [13] was > 100 µM (inactive) throughout. Moreover, the GI50 in assay [14] is > 100 µM (inactive); in [15] it was > 100 µM (inactive); in [16], > 100 µM (inactive); in assay [17], > 100 µM (inactive); in [18] it was 19.6 µM (inactive); in assay [19], > 100 µM (inactive).
On to `Cc1ccc(-c2c(C#N)c(N)[nH]c(=S)c2C#N)cc1`, for which the GI50 was 23.9 µM (inactive) in [1]; 40.3 µM (inactive) in assay [2]; 35.2 µM (inactive) in assay [3]; 13.4 µM (inactive) in [4]; 38.7 µM in assay [5]; 47.6 µM (inactive) in [6]. The GI50 is 73.6 µM (inactive) in assay [7]; 46.3 µM (inactive) in assay [8]; 26.1 µM (inactive) in [9]; 26.7 µM (inactive) in assay [10]; 32.4 µM (inactive) in assay [11]; 16.6 µM (inactive) in assay [12]. Further, the GI50 in assay [13] is 58.5 µM (inactive); in [14], 35.2 µM (inactive); in assay [15], 26.2 µM (inactive); in assay [16], 34.8 µM (inactive); in assay [17], 18.7 µM (inactive); in [18], 31.4 µM (inactive). In assay [19], the GI50 was 39.7 µM (inactive).
Regarding `O=C(NCc1ccccc1)c1c(O)nc2ccccc2c1O`, the GI50 in assay [1] was > 100 µM (inactive); in assay [2] it was > 100 µM (inactive); in assay [3], > 100 µM (inactive); in assay [4], > 100 µM (inactive); in [5], above 100 µM; in assay [6] it was > 100 µM (inactive). The GI50 in assay [7], in assay [8], in [9], in assay [10], in [11] and in [12] was > 100 µM (inactive) each time. Also, the GI50 in assay [13], in assay [14], in [15], in assay [16], in [17] and in assay [18] was > 100 µM (inactive) throughout. Further, the GI50 in assay [19] was > 100 µM (inactive).
With `Cn1c(=O)c(C(=O)Nc2nc(C34CC5CC(CC(C5)C3)C4)cs2)c(O)c2ccccc21`, the GI50 is 52.8 µM (inactive) in assay [1]; > 100 µM (inactive) in assay [2]; > 100 µM (inactive) in [3]; > 100 µM (inactive) in assay [4]; above 100 µM in assay [5]; > 100 µM (inactive) in assay [6]. Further, the GI50 in assay [7] was 25.1 µM (inactive); in [8] it was > 100 µM (inactive); in assay [9] it was 36.7 µM (inactive); in assay [10] it was > 100 µM (inactive); in [11], > 100 µM (inactive); in assay [12], > 10 µM (inactive). The GI50 in assay [13] was 79.8 µM (inactive); in assay [14], 58.9 µM (inactive); in assay [15], > 100 µM (inactive); in assay [16], 70 µM (inactive); in assay [17] it was 22.2 µM (inactive); in assay [18] it was 18.2 µM (inactive). Further, the GI50 in [19] was > 100 µM (inactive).
For `O=C(O)C(Cc1cc(I)c(O)c(I)c1)C1CCCCC1` (centres undefined), the GI50 in assay [1] is 61.5 µM (inactive); in assay [2] it was 45.7 µM (inactive); in assay [3], 15.6 µM (inactive); in assay [4] it was 31.9 µM (inactive); in [5] it was 31.7 µM; in [6], 18.1 µM (inactive). The GI50 in assay [7] is 24 µM (inactive); in assay [8], 38.6 µM (inactive); in assay [9] it was 51.9 µM (inactive); in assay [10] it was 27.2 µM (inactive); in [11], 26.5 µM (inactive); in assay [12] it was 28.4 µM (inactive). Also, the GI50 in assay [13] is 31.9 µM (inactive); in assay [14], 21.3 µM (inactive); in assay [15], 59.7 µM (inactive); in assay [16] it was 21.8 µM (inactive); in assay [17] it was 34.2 µM (inactive); in assay [18] it was 33.5 µM (inactive). In addition, in assay [19], the GI50 was 24 µM (inactive).
Regarding `O=c1[nH]n(CCc2ccccc2CCl)c2ccc([N+](=O)[O-])cc12`, the GI50 was 95.9 µM (inactive) in assay [1]; 25 µM (inactive) in [2]; > 100 µM (inactive) in assay [3]; 3.65 µM (inactive) in [4]; above 100 µM in assay [5]; 57 µM (inactive) in assay [6]. The GI50 is > 100 µM (inactive) in [7]; 71.3 µM (inactive) in [8]; 93.8 µM (inactive) in assay [9]; > 100 µM (inactive) in assay [10]; 52.1 µM (inactive) in assay [11]; 72.8 µM (inactive) in assay [12]. Moreover, the GI50 was 99.1 µM (inactive) in assay [13]; 91 µM (inactive) in assay [14]; > 100 µM (inactive) in assay [15]; 76.2 µM (inactive) in assay [16]; 92.3 µM (inactive) in [17]; 67.6 µM (inactive) in assay [18]. Also, in assay [19], the GI50 is 89.9 µM (inactive).
`Nc1nc(N)c(N=Nc2ccc([As](=O)(O)O)c(O)c2)c(N)n1`: the GI50 in assay [20] was 36.4 µM (inactive); in [1], > 100 µM (inactive); in assay [2] it was > 88.9 µM (inactive); in assay [3], 3.61 µM (inactive); in assay [4], > 63.5 µM (inactive); in [5] it was 37.6 µM. Also, the GI50 was 6.12 µM (inactive) in assay [6]; 16.8 µM (inactive) in assay [7]; 13.7 µM (inactive) in assay [8]; 20 µM (inactive) in [9]; 7.24 µM (inactive) in assay [11]; 3.63 µM (inactive) in assay [12]. The GI50 in [13] is > 82.4 µM (inactive); in assay [14] it was 83.6 µM (inactive); in [15], > 100 µM (inactive); in [16], > 54.2 µM (inactive); in assay [17] it was 7.48 µM (inactive); in [18], 35.3 µM (inactive). For the same compound, the GI50 in assay [19] is 7.57 µM (inactive).
In the case of `CSc1ccsc1-c1sc(-c2cc(SC)c(-c3sc(-c4cc(SC)c(-c5sccc5SC)s4)cc3SC)s2)cc1SC`, the GI50 in assay [20] is > 100 µM (inactive); in assay [3], 49.8 µM (inactive); in assay [4] it was > 100 µM (inactive); in assay [5], above 100 µM; in assay [6], > 100 µM (inactive); in assay [7], > 100 µM (inactive). For the same compound, the GI50 in assay [8] is > 100 µM (inactive); in assay [9], 15.3 µM (inactive); in [10], > 100 µM (inactive); in [11], 75.9 µM (inactive); in assay [12] it was 18 µM (inactive); in [13] it was 90.8 µM (inactive). In addition, the GI50 is > 100 µM (inactive) in assay [14]; > 100 µM (inactive) in [15]; > 100 µM (inactive) in [16]; > 100 µM (inactive) in assay [17]; 62.4 µM (inactive) in assay [18]; 64.9 µM (inactive) in [19].
In the case of `O=C1OC2(CCCCC2)C(Oc2ccc(Cl)cc2)=C1F`, the GI50 in assay [20] was > 100 µM (inactive); in assay [2], 49.5 µM (inactive); in [3], 40.3 µM (inactive); in assay [4], 38.2 µM (inactive); in assay [6], 41.1 µM (inactive); in assay [7], 85.1 µM (inactive). Further, the GI50 is 51.9 µM (inactive) in [8]; 48.3 µM (inactive) in [9]; 22.3 µM (inactive) in assay [10]; 35.7 µM (inactive) in assay [11]; 20.3 µM (inactive) in assay [12]; 42.1 µM (inactive) in [13]. Further, the GI50 was 47.3 µM (inactive) in [14]; 23.7 µM (inactive) in assay [15]; 77.3 µM (inactive) in assay [16]; 61.9 µM (inactive) in assay [17]; 20.4 µM (inactive) in assay [18].

These data come from ChEMBL document CHEMBL1201862, “PubChem BioAssay data set” (2004).
